Drawing on patent US20110071150A1 (priority 2009, published 2011), this text covers IC50 for 29 molecules.

This assay has as its system Jurkat IL-2 Production. In words: Jurkat IL-2 Production Assay. Type of assay: cell-based. Conditions: Homo sapiens, Jurkat cell (ATCC), 18-20 h incubation, PHA 5 μg/mL with 1% FBS, or PMA/Ionomycin with 30% FBS (table does not say which). The protocol: Jurkat IL-2 Production Assay
Cell: Jurkat cell (ATCC) was grown in RPMI 1640 with 10% FBS and 1% penicillin/streptomycin. The cell density was kept at 1.2-1.8×10^6/mL in culture flask before seeding into culture plate, and the cell density in the plate was 0.5×10^6/[…]/well.
Culture media: RPMI 1640 with 1% FBS or 30% FBS for high serum assay.
Test compound: serial dilution was done in 100% DMSO, and intermediate dilution was done with RPMI 1640 medium with 1% FBS. The DMSO final concentration in culture well was 0.25%.
Stimulant: PHA (Sigma#L9017-10MG) was used for the assay with 1% FBS in culture medium, and added after 10 minutes exposure of cell to compound/DMSO. The PHA final concentration in culture well was 5 μg/mL. PMA (Sigma# P-8139 5MG)/Ionomycin (Sigma# 10634-5MG) was used for the assay with 30% FBS in culture medium, and added at same time point as the 1% FBS culture assay. The final concentration of PMA was 50 ng/mL, and Ionomycin final concentration was 500 ng/mL.
Incubation: at 37° C. with 5% CO2 and 95% humidity for 18 h˜20 h.
IC50: IC50 was calculated with the data analysis software XLfit4, General Pharmacology model 251.
In turn, `CCn1nc(C(F)(F)F)cc1-c1ccc2[nH]c(-c3ccc(OC)nc3C)cc2c1` [Example 193, 5-(1-ethyl-3-(trifluoromethyl)-1H-pyrazol-5-yl)-2-(6-methoxy-2-methylpyridin-3-yl)-1H-indole] returned an IC50 of 129 nM.
Next, `CCc1sc(-c2cnccn2)nc1-c1ccc2[nH]c(-c3c(F)cccc3Cl)cc2c1` [Example 179, 2-(2-Chloro-6-fluoro-phenyl)-5-(5-ethyl-2-pyrazin-2-yl-thiazol-4-yl)-1H-indole]: 23 nM; `Cc1ccccc1-c1cc2cc(-c3cc(C(F)(F)F)nn3C)ccc2[nH]1` [Example 60, 5-(2-Methyl-5-trifluoromethyl-2H-pyrazol-3-yl)-2-o-tolyl-1H-indole]: 140 nM; `COC(=O)c1cc(C)c(-c2ccc3[nH]c(-c4c(F)cccc4Cl)cc3c2)cn1` [Example 117, 5-[2-(2-Chloro-6-fluoro-phenyl)-1H-indol-5-yl]-4-methyl-pyridine-2-carboxylic acid methyl ester]: 19 nM.
Take `COC(=O)c1ccc(-c2ccc3[nH]c(-c4c(F)cccc4Cl)cc3c2)c(C)c1` [Example 53, 4-[2-(2-Chloro-6-fluoro-phenyl)-1H-indol-5-yl]-3-methyl-benzoic acid methyl ester]: the IC50 came to 14 nM.
For the molecule `CCn1nc(-c2cnccn2)nc1-c1ccc2[nH]c(-c3c(F)cccc3Cl)cc2c1` [Example 187, 2-(2-Chloro-6-fluoro-phenyl)-5-(2-ethyl-5-pyrazin-2-yl-2H-[1,2,4]triazol-3-yl)-1H-indole], it took 69 nM to reach half-maximal inhibition (IC50).
In turn, `CCn1nc(C(F)(F)F)cc1-c1ccc2[nH]c(-c3cnc(OC)cc3C)cc2c1` [Example 190, 5-(1-ethyl-3-(trifluoromethyl)-1H-pyrazol-5-yl)-2-(6-methoxy-4-methylpyridin-3-yl)-1H-indole] returned an IC50 of 111 nM.
On to `CCn1nc(C(F)(F)F)cc1-c1ccc2[nH]c(-c3cnccc3C)cc2c1` [Example 191, 5-(1-ethyl-3-(trifluoromethyl)-1H-pyrazol-5-yl)-2-(4-methylpyridin-3-yl)-1H-indole], for which the IC50 is 67 nM.
For `Cc1cc(C#N)ccc1-c1ccc2[nH]c(-c3c(F)cc(O)cc3F)cc2c1` [Example 157, 4-(2-(2,6-difluoro-4-hydroxyphenyl)-1H-indol-5-yl)-3-methylbenzonitrile] the value was 222 nM; for `Cn1nc(C(F)(F)F)cc1-c1ccc2[nH]c(-c3cc(Cl)ccc3F)cc2c1` [Example 33, 2-(5-Chloro-2-fluoro-phenyl)-5-(2-methyl-5-trifluoromethyl-2H-pyrazol-3-yl)-1H-indole], 741 nM.
`Cn1nc(-c2cncnc2)nc1-c1ccc2[nH]c(-c3c(F)cccc3Cl)cc2c1` [Example 188, 2-(2-Chloro-6-fluoro-phenyl)-5-(2-methyl-5-pyrimidin-5-yl-2H-[1,2,4]triazol-3-yl)-1H-indole] returned an IC50 of 44 nM.
The molecule `CCn1nc(C(F)(F)F)cc1-c1ccc2c(c1)CC(C1CCCCC1)N2` (centres unmarked) [Example 197] came in with an IC50 of 110 nM.
Next, `Cc1cc(C#N)ccc1-c1ccc2[nH]c(-c3c(F)cc(OCCO)cc3F)cc2c1` [Example 154, 4-(2-(2,6-difluoro-4-(2-hydroxyethoxy)phenyl)-1H-indol-5-yl)-3-methylbenzonitrile]: 586 nM.
With `Cc1nnc(-c2cc(C)c(-c3ccc4[nH]c(-c5c(F)cccc5Cl)cc4c3)cn2)o1` [Example 120, 2-(2-Chloro-6-fluoro-phenyl)-5-[4-methyl-6-(5-methyl-[1,3,4]oxadiazol-2-yl)-pyridin-3-yl]-1H-indole], the IC50 turned out to be 19 nM.
For `COc1ccc(-c2ccc3[nH]c(-c4c(F)cccc4Cl)cc3c2)c(OC)c1` [Example 54, 2-(2-chloro-6-fluoro-phenyl)-5-(2,4-dimethoxy-phenyl)-1H-indole], half-maximal inhibition (IC50) was put at 33 nM.
For the molecule `Cn1nc(Br)cc1-c1ccc2[nH]c(-c3c(F)cccc3F)cc2c1` [Example 111, 5-(5-Bromo-2-methyl-2H-pyrazol-3-yl)-2-(2,6-difluoro-phenyl)-1H-indole], the IC50 turned out to be 318 nM.
The molecule `Cc1ccccc1-c1cc2cc(-c3cc(C4CC4)nn3C)ccc2[nH]1` [Example 62, 5-(5-Cyclopropyl-2-methyl-2H-pyrazol-3-yl)-2-o-tolyl-1H-indole] showed an IC50 of 964 nM.
As to `Cc1cc(C(N)=O)ccc1-c1ccc2[nH]c(-c3ccccc3Cl)cc2c1` [Example 128, 4-[2-(2-Chloro-phenyl)-1H-indol-5-yl]-3-methyl-benzamide], it took 776 nM to reach half-maximal inhibition (IC50).
Next, `Cc1nc(-c2ccccc2)sc1-c1ccc2[nH]c(-c3ccccc3Cl)cc2c1` [Example 7, 2-(2-Chloro-phenyl)-5-(4-methyl-2-phenyl-thiazol-5-yl)-1H-indole]: 800 nM; `COc1cc(C)c(-c2ccc3[nH]c(-c4ccccc4F)cc3c2)cn1` [Example 112, 2-(2-Fluoro-phenyl)-5-(6-methoxy-4-methyl-pyridin-3-yl)-1H-indole]: 843 nM; `CCn1nc(-c2cccnc2)nc1-c1ccc2[nH]c(-c3c(F)cccc3F)cc2c1` [Example 205, 2-(2,6-Difluoro-phenyl)-5-(2-ethyl-5-pyridin-3-yl-2H-[1,2,4]triazol-3-yl)-1H-indole]: 24 nM.
`COC(=O)c1ccc(-c2ccc3[nH]c(-c4c(F)cccc4F)cc3c2)c(Cl)c1` [Example 88, 4-[2-(2,6-Difluoro-phenyl)-1H-indol-5-yl]-3-chloro-benzoic acid methyl ester] yielded an IC50 of 908 nM.
The molecule `Cc1cc(Cl)ncc1-c1ccc2[nH]c(-c3cnccc3C)cc2c1` [Example 215, 5-(6-Chloro-4-methyl-pyridin-3-yl)-2-(4-methyl-pyridin-3-yl)-1H-indole] showed an IC50 of 235 nM.
Next, `Cc1cc(S(=O)(=O)N2CCN(C)CC2)ccc1-c1ccc2[nH]c(-c3c(F)cccc3Cl)cc2c1` [Example 170, 2-(2-chloro-6-fluorophenyl)-5-(2-methyl-4-(4-methylpiperazin-1-ylsulfonyl)phenyl)-1H-indole]: 170 nM.
As to `Cc1cc(C#N)cnc1-c1ccc2[nH]c(-c3c(F)cccc3Cl)cc2c1` [Example 161, 6-(2-(2-chloro-6-fluorophenyl)-1H-indol-5-yl)-5-methylnicotinonitrile], the IC50 came out at 99 nM.
In turn, `Cc1cccc(F)c1-c1cc2cc(-c3nc(-c4cccnc4)sc3C)ccc2[nH]1` [Example 220, 2-(2-Fluoro-6-methyl-phenyl)-5-(5-methyl-2-pyridin-3-yl-thiazol-4-yl)-1H-indole] came in with a 50% inhibitory concentration (IC50) of 24 nM.
Turning to `COc1nccc(-c2cc3cc(-c4cc(C(F)(F)F)nn4C)ccc3[nH]2)c1Cl` [Example 43, 2-(3-Chloro-2-methoxy-pyridin-4-yl)-5-(2-methyl-5-trifluoromethyl-2H-pyrazol-3-yl)-1H-indole], the IC50 was determined as 87 nM.
For the molecule `Cc1sc(-c2cccnc2)nc1-c1ccc2[nH]c(-c3ccc(F)cc3Cl)cc2c1` [Example 67, 2-(2-Chloro-4-fluoro-phenyl)-5-(5-methyl-2-pyridin-3-yl-thiazol-4-yl)-1H-indole], 63 nM corresponded to half-maximal inhibition (IC50).
In turn, `Cn1nc(-c2ccncc2)cc1-c1ccc2[nH]c(-c3c(F)cccc3F)cc2c1` [Example 17, 2-(2,6-Difluoro-phenyl)-5-(2-methyl-5-pyridin-4-yl-2H-pyrazol-3-yl)-1H-indole] gave an IC50 of 57 nM.

For orientation: IC50 means the concentration needed to halve the response being measured.
